Test results as given in PubChem BioAssay AID624108 (Broad Institute, 2012).
Active and inactive are the calls of the source. How the calls were made is not given here.

Target: Glycogen synthase kinase-3 beta (Homo sapiens) (UniProt P49841)
Test: GSK3beta direct binders, dose response, biophysical, surface plasmon resonance, microfluidics, dry powder samples (AID 624108)
Conditions: recombinant GSK3beta, surface plasmon resonance binding

Chain of Glycogen synthase kinase-3 beta (Homo sapiens) (P49841 whole entry, looked up): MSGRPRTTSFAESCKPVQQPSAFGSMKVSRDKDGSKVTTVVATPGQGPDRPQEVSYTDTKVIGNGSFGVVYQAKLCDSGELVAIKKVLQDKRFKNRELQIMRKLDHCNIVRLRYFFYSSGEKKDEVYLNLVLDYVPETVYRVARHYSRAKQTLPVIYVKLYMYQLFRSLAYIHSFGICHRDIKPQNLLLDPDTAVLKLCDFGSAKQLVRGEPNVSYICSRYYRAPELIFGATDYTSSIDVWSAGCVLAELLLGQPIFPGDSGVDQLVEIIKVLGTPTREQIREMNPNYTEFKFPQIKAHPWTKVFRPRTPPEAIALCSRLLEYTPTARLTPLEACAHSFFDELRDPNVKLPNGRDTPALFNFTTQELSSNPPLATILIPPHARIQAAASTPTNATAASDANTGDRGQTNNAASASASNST

Kd | Compound
150 nM | CC1(C)CC(=O)C2=C(C1)Nc1n[nH]c(C(F)(F)F)c1C2c1cc(F)ccc1C(F)(F)F (configuration not stated)
585 nM | COc1ccccc1C1C2=C(CC(C)(C)CC2=O)Nc2n[nH]c(C(C)(C)C)c21 (configuration not stated)
> 5000 nM (inactive) | Cc1[nH]nc2c1C(C1CCCCC1)C1=C(CC(C)(C)CC1=O)N2 (configuration not stated)
> 5000 nM (inactive) | CC1(C)CC(=O)/C(=C\c2ccccc2C(F)(F)F)C(=Nc2cc(C(F)(F)F)[nH]n2)C1
> 5000 nM (inactive) | COc1ccccc1C1C2=C(CC(C)(C)CC2=O)Nc2onc(C)c21 (configuration not stated)
inactive | Cc1[nH]nc2c1C(c1cccc(C(F)(F)F)c1)C1=C(CC(C)(C)CC1=O)N2 (configuration not stated)
627 nM | CC1(C)CC(=O)C2=C(C1)Nc1n[nH]c(C(F)(F)F)c1C2c1cc(F)ccc1OC(F)(F)F (configuration not stated)
> 5000 nM (inactive) | Cc1[nH]nc2c1C(C1CC1)C1=C(CC(C)(C)CC1=O)N2 (configuration not stated)
31 nM | COc1ccccc1[C@@H]1C2=C(CC(C)(C)CC2=O)Nc2n[nH]c(C(F)(F)F)c21
> 5000 nM (inactive) | Cc1[nH]nc2c1C(c1ccc(Br)cn1)C1=C(CC(C)(C)CC1=O)N2 (configuration not stated)
inactive | Cc1[nH]nc2c1C(c1ccc(F)cc1)C1=C(CC(C)(C)CC1=O)N2 (configuration not stated)
> 5000 nM (inactive) | CC1(C)CC(=O)C2=C(C1)Nc1n[nH]c(C(F)(F)F)c1C2c1ccccc1F (configuration not stated)
> 5000 nM (inactive) | Cc1[nH]nc2c1C(C)C1=C(CC(C)(C)CC1=O)N2 (configuration not stated)
424 nM | CC1(C)CC(=O)C2=C(C1)Nc1n[nH]c(C(F)(F)F)c1C2c1cc(F)ccc1F (configuration not stated)
> 5000 nM (inactive) | COc1ccccc1-c1c2c(nc3n[nH]c(C)c13)CCC2=O
inactive | Cc1ccc(C2C3=C(CC(C)(C)CC3=O)Nc3n[nH]c(C)c32)cc1 (configuration not stated)
inactive | Cc1[nH]nc2c1C(c1ccc(C#N)cc1)C1=C(CC(C)(C)CC1=O)N2 (configuration not stated)
> 5000 nM (inactive) | Cc1[nH]nc2c1[C@@H](c1cccs1)C1=C(CC(C)(C)CC1=O)N2
inactive | COc1ccccc1C1C2=C(CC(C)(C)CC2=O)Nc2n[nH]c(-c3ccccc3)c21 (configuration not stated)
> 5000 nM (inactive) | COc1ccccc1C1C2=C(CC3(CCCCC3)CC2=O)Nc2n[nH]c(C)c21 (configuration not stated)
> 5000 nM (inactive) | Cc1[nH]nc2nc3c(cc12)C(=O)CC(C)(C)C3
450 nM | Cc1[nH]nc2c1C(c1ccsc1)C1=C(CC(C)(C)CC1=O)N2 (configuration not stated)
> 5000 nM (inactive) | Cc1[nH]nc2c1C(c1ccc(F)cc1Cl)C1=C(CC(C)(C)CC1=O)N2 (configuration not stated)

Kd | Compound
13 nM | Cc1[nH]nc2nc3c(c(-c4ccccc4)c12)C(=O)CC(C)(C)C3
inactive | COc1ccccc1C1C2=C(CC(C)(C)CC2=O)Nc2n[nH]c(C(C)C)c21 (configuration not stated)
520 nM | Cc1[nH]nc2c1C(c1ccc(Cl)s1)C1=C(CC(C)(C)CC1=O)N2 (configuration not stated)
> 5000 nM (inactive) | Cc1[nH]nc2c1C(c1ccn[nH]1)C1=C(CC(C)(C)CC1=O)N2 (configuration not stated)
> 5000 nM (inactive) | COc1cccc(C2C3=C(CC(C)(C)CC3=O)Nc3n[nH]c(C)c32)c1 (configuration not stated)
149 nM | Cc1[nH]nc2c1C(C)(c1ccccc1)C1=C(CC(C)(C)CC1=O)N2 (configuration not stated)
> 5000 nM (inactive) | Cc1[nH]nc2c1C(c1cccc3nonc13)C1=C(CC(C)(C)CC1=O)N2 (configuration not stated)
> 5000 nM (inactive) | COc1ccccc1C1C2=C(CCCC2=O)Nc2n[nH]c(C)c21 (configuration not stated)
> 5000 nM (inactive) | Cc1[nH]nc2c1C(c1ccccc1C#N)C1=C(CC(C)(C)CC1=O)N2 (configuration not stated)
331 nM | Cc1[nH]nc2c1C(c1cccc(C#N)c1)C1=C(CC(C)(C)CC1=O)N2 (configuration not stated)
173 nM | COc1ccccc1C1C2=C(CC(C)(C)CC2=O)Nc2[nH]ncc21 (configuration not stated)
inactive | COc1ccccc1[C@H]1C2=C(CC(C)(C)CC2=O)Nc2n[nH]c(C(F)(F)F)c21
420 nM | Cc1[nH]nc2c1C(c1cccs1)C1C(=O)CC(C)(C)CC1=N2 (configuration not stated)
40 nM | CC1(C)CC(=O)/C(=C\c2cccc(F)c2C(F)(F)F)C(=Nc2cc(C(F)(F)F)[nH]n2)C1
368 nM | Cc1[nH]nc2c1C(c1ccc(C(F)(F)F)cc1)C1=C(CC(C)(C)CC1=O)N2 (configuration not stated)
> 5000 nM (inactive) | COc1ccccc1C1C(C(C)=O)=C(C)Nc2n[nH]c(C)c21 (configuration not stated)
360 nM | Cc1[nH]nc2c1C(c1cccc(Cl)c1)C1=C(CC(C)(C)CC1=O)N2 (configuration not stated)
60 nM | COc1ccccc1C1C2=C(CC(C)(C)CC2=O)Nc2n[nH]c(C)c21 (configuration not stated)
inactive | COc1ccc(C2C3=C(CC(C)(C)CC3=O)Nc3n[nH]c(C)c32)cc1 (configuration not stated)
421 nM | Cc1[nH]nc2c1[C@H](c1cccs1)C1=C(CC(C)(C)CC1=O)N2
390 nM | Cc1[nH]nc2c1C(c1ccccn1)C1=C(CC(C)(C)CC1=O)N2 (configuration not stated)
102 nM | COc1ccccc1C1C2=C(CC(C)(C)CC2=O)Nc2n[nH]c(C(F)(F)F)c21 (configuration not stated)
49 nM | Cc1[nH]nc2c1C(c1ccccc1C(F)(F)F)C1=C(CC(C)(C)CC1=O)N2 (configuration not stated)

Kd | Compound
15 nM | Cc1[nH]nc2c1[C@H](c1ccccc1C(F)(F)F)C1=C(CC(C)(C)CC1=O)N2
122 nM | CC1(C)CC(=O)C2=C(C1)Nc1n[nH]c(C(F)(F)F)c1C2c1ccccc1C(F)(F)F (configuration not stated)
40 nM | Cc1[nH]nc2c1C(c1ccccc1Br)C1=C(CC(C)(C)CC1=O)N2 (configuration not stated)
802 nM | Cc1cccc(C2C3=C(CC(C)(C)CC3=O)Nc3n[nH]c(C)c32)c1 (configuration not stated)
> 5000 nM (inactive) | CC1(C)CC(=O)C2=C(C1)Nc1n[nH]c(C(F)(F)F)c1C2(C)c1ccccc1 (configuration not stated)
> 5000 nM (inactive) | CCc1[nH]nc2c1C(c1ccccc1OC)C1=C(CC(C)(C)CC1=O)N2 (configuration not stated)
> 5000 nM (inactive) | COc1ccccc1C1C2=C(CC(C)(C)CC2=O)Nc2ccccc21 (configuration not stated)
223 nM | Cc1ccccc1C1C2=C(CC(C)(C)CC2=O)Nc2n[nH]c(C)c21 (configuration not stated)
inactive | Cc1[nH]nc2c1C(c1ccc(Cl)cc1)C1=C(CC(C)(C)CC1=O)N2 (configuration not stated)
270 nM | Cc1[nH]nc2c1C(c1cccnc1)C1=C(CC(C)(C)CC1=O)N2 (configuration not stated)
113 nM | CC1(C)CC(=O)C2=C(C1)Nc1n[nH]c(C(F)(F)F)c1C2c1ccccc1 (configuration not stated)
24 nM | Cc1[nH]nc2nc3c(c(-c4cccs4)c12)C(=O)CC(C)(C)C3
822 nM | CC1(C)CC(=O)C2=C(C1)Nc1n[nH]c(C(F)(F)F)c1C2c1cccc(F)c1C(F)(F)F (configuration not stated)
> 5000 nM (inactive) | COc1ccccc1/C=C1\C(=O)CC(C)(C)CC1=Nc1cc(C(F)(F)F)[nH]n1
890 nM | Cc1[nH]nc2c1C(c1ccccc1Cl)C1=C(CC(C)(C)CC1=O)N2 (configuration not stated)
202 nM | CC1(C)CC(=O)C2=C(C1)Nc1n[nH]c(C(F)(F)F)c1C2c1ccc(F)cc1C(F)(F)F (configuration not stated)
inactive | Cc1[nH]nc2c1C(c1ccc3c(c1)OCO3)C1=C(CC(C)(C)CC1=O)N2 (configuration not stated)
> 5000 nM (inactive) | CC1(C)CC(=O)C2=C(C1)Nc1n[nH]c(C(F)(F)F)c1C2c1c(F)cccc1F (configuration not stated)
inactive | Cc1[nH]nc2c1C(c1cccc(F)c1)C1=C(CC(C)(C)CC1=O)N2 (configuration not stated)
> 5000 nM (inactive) | Cc1[nH]nc2c1[C@@H](c1ccccc1C(F)(F)F)C1=C(CC(C)(C)CC1=O)N2
305 nM | COc1ccccc1C1C2=C(CCC(C)(C)C2=O)Nc2n[nH]c(C)c21 (configuration not stated)
